Test results as given in patent US8143374B2, “Polypeptide derivatives of parathyroid hormone (PTH)” (The General Hospital Corporation, priority 2006, dated 2012).
“And” between values parts separate entries of the source, which are not always exact repeats. Equal values may be shown once. Read-outs that look alike come from different tables or passages of the source. Where a SMILES comes first, the peptide text is derived from it. Where no end group is shown, it is not given here. [ ]: non-standard residue; d: D form. Apa = (S)-2-amino-4[(2-amino)pyrimidinyl]methylalanine; Phe(4-guanidino) = N=C(N)Nc1ccc(C[C@H](N)C(=O)O)cc1; Cha = N[C@@H](CC1CCCCC1)C(=O)O; Orn = NCCC[C@H](N)C(=O)O

What was measured:
PTHR-delNt = target: T1, PTHR-delNt (Homo sapiens, UniProt Q03431, DEL24-181); experiment: Competition binding in COS-7 cell membranes with 125I-[Aib1,3,M]PTH(1-15)NH2 tracer; conditions: for reduction (alteration) of binding affinity for PTHR-delNt relative to parent peptide: versus the respective parent peptide; for IC50: COS-7 membranes cotransfected with negative-dominant Gαs
T1 construct: expressed in transfected cells; host or cells: COS-7 cells, transient co-transfection; membranes prepared
T1 sequence (Q03431 with tags, fused parts or gaps DEL24-181): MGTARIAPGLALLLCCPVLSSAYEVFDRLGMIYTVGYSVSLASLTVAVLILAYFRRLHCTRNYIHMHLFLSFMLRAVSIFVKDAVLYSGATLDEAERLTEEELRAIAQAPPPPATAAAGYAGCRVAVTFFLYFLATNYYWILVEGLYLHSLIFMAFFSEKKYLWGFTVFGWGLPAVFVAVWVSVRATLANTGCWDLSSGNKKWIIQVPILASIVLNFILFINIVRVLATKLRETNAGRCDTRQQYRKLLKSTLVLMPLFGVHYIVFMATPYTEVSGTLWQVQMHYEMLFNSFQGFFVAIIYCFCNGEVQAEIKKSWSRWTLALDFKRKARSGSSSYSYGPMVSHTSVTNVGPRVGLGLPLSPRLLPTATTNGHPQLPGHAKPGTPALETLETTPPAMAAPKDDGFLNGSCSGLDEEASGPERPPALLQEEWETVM
Procedure, shortened: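 Membranes (20 µg/well) from COS-7 cells co-transfected with human PTHR lacking residues 24–181 plus dominant-negative Gαs, incubated 90 min at 21 °C with 125I-[Aib1,3,M]PTH(1-15)NH2 and unlabeled peptide (3×10^−9 to 1×10^−5 M), then filtered and gamma-counted. Non-specific binding with 1×10^−6 M [Aib1,3,M]PTH(1-15)NH2; IC50 by four-parameter logistic fit, extrapolated to reference maximal inhibition where incomplete.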

[1] = Circular dichroism spectroscopy, helical residues per peptide chain; assay type: physicochemical; conditions: calculated from [θ]222
Procedure, shortened: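 CD spectra recorded at 20 °C, four scans averaged; peptide concentration checked by A280 with the single-Trp extinction coefficient of 5700 M^−1. Helical residues per chain calculated as −[θ]222×30/28,000 from mean residue ellipticity at 222 nm.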

[2] = [Ala1,Arg19]hPTH(1-31)NH2 analogs
[3] = hPTH(1-31)NH2 analogs, read-out: PTHR-delNT (COS-7) IC50
[4] = [Ala1,Arg19]hPTH(1-31)NH2 analogs, read-out: PTHR-delNT (COS-7) IC50

| Molecule | reduction (alteration) of binding affinity for PTHR-delNt relative to parent peptide (PTHR-delNt; COS-7 membranes) | IC50 (PTHR-delNt; [3]) [µM] | CD helical residues ([1]; hPTH(1-31)NH2 analogs) | further results |
| --- | --- | --- | --- | --- |
| AVSEIQLMHNLGKHLNSMERVEWLRKKLQDV-NH2 [Arg^19→Glu] | 50 fold and 90 fold | – | – | CD helical residues [1, 2]: 9 |
| SVSEIQLMHNLGKHLNSMRRVAWLRKKLQDV-NH2 [Glu^19,22→Arg,Ala] | – | 0.36 ± 0.019 | 8 | – |
| Arg^20→Apa: hPTH(1-31)NH2 analog with Arg^20 replaced by (S)-2-amino-4[(2-amino)pyrimidinyl]methylalanine (Apa) (SVSEIQLMHNLGKHLNSME[Apa]VEWLRKKLQDV-NH2) | – | 5.74 | – | – |
| SVSEIQLMHNLGKHLNSMARVEWLRKKLQDV-NH2 [Glu^19→Ala] | – | 2.94 | 9 | – |
| SVSEIQLMHNLGKHLNSMERAEWLRKKLQDV-NH2 [Val^21→Ala] | – | 5.69 | 10 | – |
| SVSEIQLMHNLGKHLNSMERVAWLRKKLQDV-NH2 [Glu^22→Ala] | – | 5.86 | 9 | – |
| AVSEIQLMHNLGKHLNSMRRVEWERKKLQDV-NH2 [Leu^24→Glu] | less than three-fold | – | – | effect on binding to PTHR-delNt (in words) (PTHR-delNt; COS-7 membranes): only mildly impaired binding to PTHR-delNt; IC50 (PTHR-delNt; [4]): 1.04 µM; CD helical residues [1, 2]: 6 |
| CC[C@H](C)[C@H](NC(=O)[C@H](CCC(=O)O)NC(=O)[C@H](CO)NC(=O)[C@@H](NC(=O)[C@@H](N)CO)C(C)C)C(=O)N[C@@H](CCC(N)=O)C(=O)N[C@@H](CC(C)C)C(=O)N[C@@H](CCSC)C(=O)N[C@@H](Cc1c[nH]cn1)C(=O)N[C@@H](CC(N)=O)C(=O)N[C@@H](CC(C)C)C(=O)NCC(=O)N[C@@H](CCCCN)C(=O)N[C@@H](Cc1c[nH]cn1)C(=O)N[C@@H](CC(C)C)C(=O)N[C@@H](CC(N)=O)C(=O)N[C@@H](CO)C(=O)N[C@@H](CCSC)C(=O)N[C@@H](CCC(=O)O)C(=O)N[C@@H](Cc1ccc(NC(=N)N)cc1)C(=O)N[C@H](C(=O)N[C@@H](CCC(=O)O)C(=O)N[C@@H](Cc1c[nH]c2ccccc12)C(=O)N[C@@H](CC(C)C)C(=O)N[C@@H](CCCNC(=N)N)C(=O)N[C@@H](CCCCN)C(=O)N[C@@H](CCCCN)C(=O)N[C@@H](CC(C)C)C(=O)N[C@@H](CCC(N)=O)C(=O)N[C@@H](CC(=O)O)C(=O)N[C@H](C(N)=O)C(C)C)C(C)C [Arg^20→Gph] (H-SVSEIQLMHNLGKHLNSME[Phe(4-guanidino)]VEWLRKKLQDV-NH2; N-terminus assumed) | – | 2.05 | – | – |
| SVSEIQLMHNLGKHLNSMEQVEWLRKKLQDV-NH2 [Arg^20→Gln] | – | 10.3 | 7 | – |
| SVSEIQLMHNLGKHLNSMERVEWLAKKLQDV-NH2 [Arg^25→Ala] | – | 7.18 | 7 | – |
| SVSEIQLMHNLGKHLNSMEAVEWLRKKLQDV-NH2 [Arg^20→Ala] | approximate five-fold reduction | 19.3 | 10 | – |
| AVSEIQLMHNLGKHLNSMRRVEWLRKELQDV-NH2 [Lys^27→Glu] | – | – | – | IC50 (PTHR-delNt; [4]): 1.27 µM; CD helical residues [1, 2]: 5 |
| SVSEIQLMHNLGKHLNSMARVAWLRKKLQDV-NH2 [Glu^19,22→Ala,Ala] | – | 0.619 ± 0.075 | 9 | – |
| SVSEIQLMHNLGKHLNSMERVEWLRKKLQDA-NH2 [Val^31→Ala] | – | 4.91 | 9 | – |
| SVSEIQLMHNLGKHLNSMERVEWLRKALQDV-NH2 [Lys^27→Ala] | – | 7.29 | 9 | – |
| SVSEIQLMHNLGKHLNSMERVEWLRAKLQDV-NH2 [Lys^26→Ala] | – | 6.21 | 7 | – |
| SVSEIQLMHNLGKHLNSMERVEWLRKKLADV-NH2 [Gln^29→Ala] | – | 1.93 | 9 | – |
| AVSEIQLMHNLGKHLNSMRREEWLRKKLQDV-NH2 [Val^21→Glu] | about four-fold | – | – | IC50 (PTHR-delNt; PTHR-delNT (COS-7) IC50, [Ala1,Arg19]hPTH(1-31)NH2 analogs): 1.61 µM; CD helical residues [1, 2]: 7 |
| CC[C@H](C)[C@H](NC(=O)[C@H](CCC(=O)O)NC(=O)[C@H](CO)NC(=O)[C@@H](NC(=O)[C@@H](N)CO)C(C)C)C(=O)N[C@@H](CCC(N)=O)C(=O)N[C@@H](CC(C)C)C(=O)N[C@@H](CCSC)C(=O)N[C@@H](Cc1c[nH]cn1)C(=O)N[C@@H](CC(N)=O)C(=O)N[C@@H](CC(C)C)C(=O)NCC(=O)N[C@@H](CCCCN)C(=O)N[C@@H](Cc1c[nH]cn1)C(=O)N[C@@H](CC(C)C)C(=O)N[C@@H](CC(N)=O)C(=O)N[C@@H](CO)C(=O)N[C@@H](CCSC)C(=O)N[C@@H](CCC(=O)O)C(=O)N[C@@H](CCCN)C(=O)N[C@H](C(=O)N[C@@H](CCC(=O)O)C(=O)N[C@@H](Cc1c[nH]c2ccccc12)C(=O)N[C@@H](CC(C)C)C(=O)N[C@@H](CCCNC(=N)N)C(=O)N[C@@H](CCCCN)C(=O)N[C@@H](CCCCN)C(=O)N[C@@H](CC(C)C)C(=O)N[C@@H](CCC(N)=O)C(=O)N[C@@H](CC(=O)O)C(=O)N[C@H](C(N)=O)C(C)C)C(C)C [Arg^20→Orn] (H-SVSEIQLMHNLGKHLNSME[Orn]VEWLRKKLQDV-NH2; N-terminus assumed) | – | 5.53 | 6 | – |
| SVSEIQLMHNLGKHLNSMEKVEWLRKKLQDV-NH2 [Arg^20→Lys] | – | 7.11 | 8 | – |
| CC[C@H](C)[C@H](NC(=O)[C@H](CCC(=O)O)NC(=O)[C@H](CO)NC(=O)[C@@H](NC(=O)[C@H](C)N)C(C)C)C(=O)N[C@@H](CCC(N)=O)C(=O)N[C@@H](CC(C)C)C(=O)N[C@@H](CCSC)C(=O)N[C@@H](Cc1c[nH]cn1)C(=O)N[C@@H](CC(N)=O)C(=O)N[C@@H](CC(C)C)C(=O)NCC(=O)N[C@@H](CCCCN)C(=O)N[C@@H](Cc1c[nH]cn1)C(=O)N[C@@H](CC(C)C)C(=O)N[C@@H](CC(N)=O)C(=O)N[C@@H](CO)C(=O)N[C@@H](CCSC)C(=O)N[C@@H](CCCNC(=N)N)C(=O)N[C@@H](CC1CCCCC1)C(=O)N[C@H](C(=O)N[C@@H](CCC(=O)O)C(=O)N[C@@H](Cc1c[nH]c2ccccc12)C(=O)N[C@@H](CC(C)C)C(=O)N[C@@H](CCCNC(=N)N)C(=O)N[C@@H](CCCCN)C(=O)N[C@@H](CCCCN)C(=O)N[C@@H](CC(C)C)C(=O)N[C@@H](CCC(N)=O)C(=O)N[C@@H](CC(=O)O)C(=O)N[C@H](C(N)=O)C(C)C)C(C)C [Arg^20→Cha, AlaValSerGluIleGlnLeuMetHisAsnLeuGlyLysHisLeuAsnSerMetArgChaValGluTrpLeuArgLysLysLeuGlnAspVal] (H-AVSEIQLMHNLGKHLNSMR[Cha]VEWLRKKLQDV-NH2; N-terminus assumed) | three-fold or less | – | – | IC50 (PTHR-delNt; [4]): 0.632 ± 0.079 µM; CD helical residues [1, 2]: 16 |
| SVSEIQLMHNLGKHLNSMEEVEWLRKKLQDV [Arg^20→Glu] | less than three-fold | 14.7 | 7 | reduction (alteration) of binding affinity for PTHR-delNt relative to parent peptide (PTHR-delNt; COS-7 membranes, listed as Arg^20 to Glu substitution in PTH(1-31)NH2): approximately four-fold reduction; IC50 (PTHR-delNt; [4]): 0.776 ± 0.38 µM; CD helical residues [1, 2]: 8 |
| AVSEIQLMHNLGKHLNSMRRVEWLEKKLQDV-NH2 [Arg^25→Glu] | about four-fold | – | – | IC50 (PTHR-delNt; [4]): 1.63 µM; CD helical residues [1, 2]: 5 |
| SVSEIQLMHNLGKHLNSMERVEALRKKLQDV-NH2 [Trp^23→Ala] | only two-fold | 7.36 | 7 | – |
| SVSEIQLMHNLGKHLNSMRRVEWLRKKLQDV-NH2 [Glu^19→Arg] | – | 1.23 | 8 | – |
